The values below come from ChEMBL document CHEMBL1201862, “PubChem BioAssay data set” (2004).

Some test systems named below: M19-MEL; DLD-1; XF498; SNB-78; DMS-114; DMS-273; HOP-18; KM-20L2; RXF 631.
What all share (assay): NCI tumour cell line growth inhibition, 48 h

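These data come from cells grown in 96-well plates and exposed to compound for 48 hours at five concentrations. GI50: concentration for 50% inhibition of growth.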 Activity calls are given as the source filed them. Cut-off read from the data, not from the text of the source: active = GI50 up to about 1.1 µM and inactive = higher. Where only a bound is given, the exact number is not on record here.

On to `Oc1c(Cl)c2nccnc2c2ccccc12`, for which the GI50 in the assay with M19-MEL, in the assay on DLD-1, with XF498, with SNB-78, in the assay on DMS-114 and in the assay with DMS-273 was > 100 µM (inactive) throughout. The GI50 is 36.9 µM (inactive) with HOP-18 and > 100 µM (inactive) in the assay with KM-20L2.

`COc1ccc2nc3cc(Cl)ccc3c(SCC(=O)Nc3ccccc3-c3ccccc3NC(=O)CSc3c4ccc(Cl)cc4nc4ccc(OC)cc34)c2c1`: the GI50 with M19-MEL, with DLD-1, with XF498, in the assay with SNB-78, with DMS-114 and in the assay with DMS-273 was > 100 µM (inactive) in each case. For the same compound, the GI50 with HOP-18 and in the assay on KM-20L2 was > 100 µM (inactive) each time.

Take `COC(=O)CCC1=NOC(CC2CC(CCC(=O)OC)=NO2)C1` (stereo not drawn): the GI50 in the assay with M19-MEL, with DLD-1, with XF498, in the assay on SNB-78, with DMS-114 and in the assay with RXF 631 was > 100 µM (inactive) in each case. In addition, the GI50 in the assay with DMS-273, in the assay on HOP-18 and in the assay on KM-20L2 was > 100 µM (inactive) each time.

In the case of `O=C1c2c(O)cccc2C(C(=O)CCCCC(=O)C2c3cccc(O)c3C(=O)c3c(O)cccc32)c2cccc(O)c21`, the GI50 with DLD-1 is 1.04 µM (active); in the assay with XF498, 0.501 µM (active); in the assay with SNB-78, 0.55 µM (active); with DMS-114, 0.522 µM (active); with RXF 631, 0.78 µM (active); with DMS-273, 1.63 µM (inactive). Also, the GI50 is 0.652 µM (active) in the assay with HOP-18 and 0.918 µM (active) with KM-20L2.

With `CCOC(=O)c1[nH]c(CN(C)Cc2[nH]c(C(=O)OCC)c(C)c2C(=O)OCc2ccccc2)c(C(=O)OCc2ccccc2)c1C`, the GI50 in the assay on DLD-1 is 33.9 µM (inactive); in the assay with SNB-78, > 100 µM (inactive); in the assay on DMS-114 it was 12.7 µM (inactive); in the assay on RXF 631 it was 4.11 µM (inactive); in the assay on DMS-273 it was 10 µM (inactive); in the assay with HOP-18, > 100 µM (inactive). For the same compound, in the assay on KM-20L2, the GI50 is 3.04 µM (inactive).

Consider `O=C(Cc1ccccc1)NN1C(=O)C(Cl)C1c1ccccc1O` (stereo not drawn), for which the GI50 with M19-MEL was 19.3 µM (inactive); with DLD-1, 9.95 µM (inactive); in the assay on XF498, 43.6 µM (inactive); in the assay with SNB-78, 50.7 µM (inactive); with DMS-114, 4.46 µM (inactive); with DMS-273 it was 20.5 µM (inactive). The values for the GI50 in the assay on HOP-18 and in the assay with KM-20L2 were 3.82 µM (inactive) and 4.57 µM (inactive), respectively.

On to `C=C(C[N+](C)(C)C)N/N=C/c1oc(-c2ccc(OC)c(OC)c2)c(-c2ccc(OC)c(OC)c2)c1[N+](=O)[O-]`, for which the GI50 in the assay with M19-MEL is 15.5 µM (inactive); in the assay with DLD-1 it was 19.9 µM (inactive); in the assay on XF498, 23.7 µM (inactive); with SNB-78, 36.4 µM (inactive); in the assay with HOP-18 it was 22.1 µM (inactive); with KM-20L2, 31.7 µM (inactive).

Consider `CNC1=Nc2ccc(Cl)cc2C(c2ccccc2)=NN1C`, for which the GI50 with M19-MEL is > 100 µM (inactive); with DLD-1, > 100 µM (inactive); with XF498 it was 31.6 µM (inactive); with SNB-78, > 100 µM (inactive); in the assay on DMS-114 it was 53.2 µM (inactive); in the assay on RXF 631, 74 µM (inactive). Also, the GI50 with DMS-273 and with KM-20L2 was > 100 µM (inactive) in each case.

For `[O-][Cl+3]([O-])([O-])O.c1ccc(/N=c2\snc(-c3ccccc3)s2)cc1`, the GI50 in the assay with M19-MEL, with DLD-1, in the assay on SNB-78, in the assay on DMS-114, in the assay with DMS-273 and in the assay with HOP-18 was > 100 µM (inactive) throughout. Moreover, the GI50 with KM-20L2 is > 100 µM (inactive).

Consider `O=C1NC(=O)c2c1n(Cc1ccccc1)c(=O)n2Cc1ccccc1`, for which the GI50 with M19-MEL, in the assay with DLD-1, with SNB-78, with DMS-114, in the assay on DMS-273 and with HOP-18 was > 100 µM (inactive) throughout. Moreover, the GI50 with KM-20L2 was > 100 µM (inactive).

On to `N#C[C@]12CC3(CC[C@H]1CC1(C2)OCCO1)OCCO3`, for which the GI50 in the assay on M19-MEL, in the assay with DLD-1, in the assay on SNB-78, in the assay with DMS-114, in the assay on RXF 631 and in the assay with DMS-273 was > 100 µM (inactive) throughout. Also, the GI50 with HOP-18 and in the assay on KM-20L2 was > 100 µM (inactive) in each case.

Turning to `CC[C@@]1(O)C(=O)OCc2c1cc1n(c2=O)Cc2c-1nc1ccccc1c2Cl`, the GI50 in the assay with M19-MEL is 0.08 µM (active); with DLD-1, 0.877 µM (active); with XF498, 0.0767 µM (active); in the assay on SNB-78 it was 2.65 µM (inactive); in the assay with DMS-114 it was < 0.0104 µM (active); in the assay with DMS-273 it was < 0.01 µM (active). Also, the GI50 was 0.0598 µM (active) in the assay with HOP-18 and 0.216 µM (active) in the assay with KM-20L2.

As for `CC1=C(C(=O)Nc2ccccc2C)C(c2ccccc2C)C(C(=O)Nc2ccccc2C)=C(C)N1`, the GI50 in the assay with M19-MEL was 21.7 µM (inactive); in the assay with DLD-1, 14.7 µM (inactive); in the assay with XF498 it was 18.7 µM (inactive); with SNB-78, 33 µM (inactive); in the assay on DMS-114 it was 26.6 µM (inactive); with RXF 631, 26.1 µM (inactive). Besides, the GI50 was 18.4 µM (inactive) in the assay with HOP-18 and 20.9 µM (inactive) with KM-20L2.

Consider `Cc1[nH]c2ccccc2c1C(=O)CC1(O)C(=O)Nc2c(Cl)cc(Cl)cc21` (stereo not drawn), for which the GI50 with M19-MEL is 9.31 µM (inactive); in the assay with DLD-1, 44.9 µM (inactive); with XF498, 18.2 µM (inactive); in the assay on SNB-78, 40.7 µM (inactive); in the assay with DMS-114, 24.3 µM (inactive); in the assay on RXF 631, 29.4 µM (inactive). Moreover, the GI50 in the assay on DMS-273 was 49.1 µM (inactive); in the assay with HOP-18, 25.6 µM (inactive).

Take `Cc1cc(Cc2cc(C)c(NC(=O)C(=O)C3C(=O)NC(=S)NC3=O)c(C(C)C)c2)cc(C(C)C)c1NC(=O)C(=O)C1C(=O)NC(=S)NC1=O`: the GI50 in the assay on M19-MEL, with DLD-1, in the assay on SNB-78, in the assay on DMS-114, in the assay with RXF 631 and with DMS-273 was > 100 µM (inactive) in each case. The GI50 in the assay with HOP-18 and in the assay with KM-20L2 was > 100 µM (inactive) each time.

In the case of `C[N+]12c3ccccc3O[B-]1(c1ccccc1)Oc1ccccc12` (stereo not drawn), the GI50 in the assay with DLD-1 is 18.2 µM (inactive); in the assay on SNB-78, 47 µM (inactive); with DMS-114, 17.6 µM (inactive); in the assay on DMS-273, 29.2 µM (inactive); in the assay with HOP-18, 42.9 µM (inactive).

With `Cc1ccc(S(=O)(=O)Nc2cccc(C)c2C)cc1`, the GI50 in the assay on M19-MEL was 67.5 µM (inactive); with XF498 it was < 0.01 µM (active); in the assay on SNB-78, 62.1 µM (inactive); with DMS-114 it was 28.8 µM (inactive); in the assay with RXF 631, 66.1 µM (inactive); in the assay with DMS-273, 45.6 µM (inactive). In addition, the GI50 in the assay with HOP-18 is > 100 µM (inactive).

Consider `O=C(Cc1nc(-c2ccccc2)cc(=O)n1-c1ccccc1Cl)c1ccncc1`, for which the GI50 in the assay with M19-MEL, in the assay with DLD-1, in the assay with SNB-78, in the assay on DMS-114, with RXF 631 and with DMS-273 was > 100 µM (inactive) in each case. Moreover, the GI50 in the assay on HOP-18 and in the assay with KM-20L2 was > 100 µM (inactive) throughout.

On to `Cn1cc(C(=O)C[n+]2ccccc2)c2ccccc21`, for which the GI50 is 59.8 µM (inactive) in the assay with M19-MEL; > 100 µM (inactive) with DLD-1; 86.9 µM (inactive) in the assay on XF498; 49.7 µM (inactive) in the assay with DMS-114; 42.3 µM (inactive) in the assay on DMS-273; 33 µM (inactive) in the assay on KM-20L2.

Take `COC(=O)c1c(O)ccc(O)c1C(C(C)=O)C(C)=O`: the GI50 in the assay with M19-MEL, in the assay on DLD-1, with XF498, in the assay with SNB-78, in the assay on DMS-114 and in the assay with DMS-273 was > 100 µM (inactive) each time.
